{"source": "BindingDB's records for doi:10.1021/jm00107a033", "about": "(Virginia Commonwealth University, 1991)", "data": [{"assay": "Binding affinity towards sigma opioid receptor was determined in guinea pig cerebral homogenate using [3H]haloperidol as radioligand", "units": {"Ki": "nM"}, "values": [{"smiles": "C[C@H](Cc1ccccc1)NCCc1ccccc1", "note": "[((R)-1-Methyl-2-phenyl-ethyl)-phenethyl-amine]", "Ki": 61}]}, {"assay": "Binding affinity towards sigma receptor in guinea pig cerebral homogenate using [3H]DTG as radioligand", "units": {"Ki": "nM"}, "values": [{"smiles": "CC(Cc1ccccc1)NCCCCc1ccccc1", "note": "(stereo not drawn)", "Ki": 9.3}, {"smiles": "C[C@H](Cc1ccccc1)NCCOc1ccccc1", "Ki": 45}, {"smiles": "C[C@@H](Cc1ccccc1)N(C)CCCCCc1ccccc1", "Ki": 2.6}, {"smiles": "C[C@H](Cc1ccccc1)NCCC(=O)c1ccccc1", "Ki": 56}, {"smiles": "C=CCN1CCC2(C)c3cc(O)ccc3CC1C2C", "note": "(stereo not drawn) [3-Allyl-8-hydroxy-6,11-dimethyl-1,2,3,4,5,6-hexahydro-2,6-methano-benzo[d]azocinium]", "Ki": 429}, {"smiles": "C[C@@H](Cc1ccccc1)NCCCCc1ccccc1", "note": "[((S)-1-Methyl-2-phenyl-ethyl)-(4-phenyl-butyl)-amine]", "Ki": 6.6}, {"smiles": "C[C@@H](Cc1ccccc1)NCCCCCc1ccccc1", "note": "[((S)-1-Methyl-2-phenyl-ethyl)-(5-phenyl-pentyl)-amine]", "Ki": 6.3}, {"smiles": "C[C@@H](Cc1ccccc1)NCCc1ccccc1", "note": "[((S)-1-Methyl-2-phenyl-ethyl)-phenethyl-amine]", "Ki": 31}, {"smiles": "C[C@@H](N)Cc1ccccc1", "note": "[(R)-amphetamine]", "Ki": 46400}, {"smiles": "CCN[C@H](C)Cc1ccccc1", "note": "[Adiparthrol]", "Ki": 660}, {"smiles": "C[C@H](Cc1ccccc1)NCc1ccccc1", "note": "[N-Benzylamphetamine (Bam)]", "Ki": 117}]}, {"assay": "Binding affinity towards sigma opioid receptor in guinea pig cerebral homogenate using [3H]DTG as radioligand", "units": {"Ki": "nM"}, "values": [{"smiles": "C[C@H](Cc1ccccc1)NCCc1ccccc1", "note": "[((R)-1-Methyl-2-phenyl-ethyl)-phenethyl-amine]", "Ki": 60}]}]}
